Reference: patent US8367668B2, “Pyridazinone derivatives” (Merck Patent Gesellschaft mit Beschränkter Haftung, priority 2007, dated 2013)

Molecular target: T1, Met kinase (Homo sapiens, UniProt P08581)
T1 construct: 6His (N); purchased Upstate 14-526; host or cells: Sf21 insect cells (S. frugiperda), baculovirus
Assay: Met kinase inhibition (enzyme assay), flashplate method
Assay type: biochemical
Excerpt: Measurement of Met Kinase Activity
According to the manufacturer's data (Met, active, upstate, catalogue No. 14-526), Met kinase is expressed for the purposes of protein production in insect cells (Sf21; S. frugiperda) and subsequent affinity-chromatographic purification as “N-terminal 6His-tagged” recombinant human protein in a baculovirus expression vector.
The kinase activity can be measured using various available measurement systems. In the scintillation proximity method (Sorg et al., J. of Biomolecular Screening, 2002, 7, 11-19), the flashplate method or the filter binding test, the radioactive phosphorylation of a protein or peptide as substrate is measured using radioactively labelled ATP (^32P-ATP, ^33P-ATP). In the case of the presence of an inhibitory compound, a reduced radioactive signal, or none at all, can be detected. Furthermore, homogeneous time-resolved fluorescence resonance energy transfer (HTR-FRET) and fluoroescence polarisation (FP) technologies can be used as assay methods (Sills et al., J. of Biomolecular Screening, 2002, 191-214).
Flashplate Method (Met Kinase)
The test plates used are 96-well Flashplate® microtitre plates from Perkin Elmer (Cat. No. SMP200). The components of the kinase reaction described below are pipetted into the assay plate. The Met kinase and the substrate poly Ala-Glu-Lys-Tyr, (pAGLT, 6:2:5:1), are incubated for 3 hrs at room temperature with radioactively labelled ^33P-ATP in the presence and absence of test substances in a total volume of 100 μl. The reaction is terminated using 150 μl of a 60 mM EDTA solution. After incubation for a further 30 min at room temperature, the supernatants are filtered off with suction, and the wells are washed three times with 200 μl of 0.9% NaCl solution each time. The measurement of the bound radioactivity is carried out by means of a scintillation measuring instrument (Topcount NXT, Perkin-Elmer).
The full value used is the inhibitor-free kinase reaction. This should be approximately in the range 6000-9000 cpm. The pharmacological zero value used is staurosporin in a final concentration of 0.1 mM. The inhibitory values (IC50) are determined using the RS1_MTS program.
Kinase reaction conditions per well: • 30 μl of assay buffer • 10 μl of substance to be tested in assay buffer with 10% of DMSO • 10 μl of ATP (final concentration 1 μM cold, 0.35 μCi of ^33P-ATP) • 50 μl of Met kinase/substrate mixture in assay buffer; • (10 ng of enzyme/well, 50 ng of pAGLT/well)
50 mM HEPES • 3 mM magnesium chloride • 3 μM sodium orthovanadate • 3 mM manganese(II) chloride • 1 mM dithiothreitol (DTT)
pH=7.5 (to be set using sodium hydroxide)
60 mM Titriplex III (EDTA)
Met kinase: Upstate, Cat. No. 14-526, Stock 1 μg/10 μl; spec. activity 954 U/mg;
Poly-Ala-Glu-Lys-Tyr, 6:2:5:1: Sigma Cat. No. P1152
Pharmacological Data Met Kinase Inhibitions (Enzyme Assay)

T1 sequence (P08581 974-1390 limits assumed): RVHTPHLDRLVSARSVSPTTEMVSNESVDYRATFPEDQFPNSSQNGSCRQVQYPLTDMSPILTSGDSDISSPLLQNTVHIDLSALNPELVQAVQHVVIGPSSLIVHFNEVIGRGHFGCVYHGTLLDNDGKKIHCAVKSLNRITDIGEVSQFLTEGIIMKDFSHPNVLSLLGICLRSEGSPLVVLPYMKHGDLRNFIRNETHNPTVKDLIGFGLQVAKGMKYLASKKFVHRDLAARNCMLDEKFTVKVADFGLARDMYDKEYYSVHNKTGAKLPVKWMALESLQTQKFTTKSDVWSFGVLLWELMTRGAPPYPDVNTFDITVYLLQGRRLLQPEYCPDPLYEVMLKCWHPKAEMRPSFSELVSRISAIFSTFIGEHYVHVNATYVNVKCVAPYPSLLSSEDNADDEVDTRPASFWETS

SMILES | IC50 [µM]
CCOC(=O)Nc1cccc(Cn2nc(-c3ccc(C(=O)NCCO)cc3)ccc2=O)c1 [A2, ethyl(3-{3-[4-(2-hydroxyethylcarbamoyl)phenyl]-6-oxo-6H-pyridazin-1-ylmethyl}phenyl)carbamate] | 0.01 to 1
CCOC(=O)Nc1cccc(Cn2nc(-c3ccc(C(=O)NCCOC)cc3)ccc2=O)c1 [A3] | 0.01 to 1
CCOC(=O)Nc1cccc(Cn2nc(-c3ccc(C(=O)NCC(O)CO)cc3)ccc2=O)c1 (centres unmarked) [A6] | 0.01 to 1
CCOC(=O)Nc1cccc(Cn2nc(-c3ccc(C(=O)N(C)CCO)cc3)ccc2=O)c1 [A12] | 0.01 to 1
CCOC(=O)CCNC(=O)c1ccc(-c2ccc(=O)n(Cc3cccc(NC(=O)OCC)c3)n2)cc1 [A13] | 0.01 to 1
CCOC(=O)Nc1cccc(Cn2nc(-c3ccc(C(=O)NCCCOC)cc3)ccc2=O)c1 [A16] | 0.01 to 1
CCOC(=O)Nc1cccc(Cn2nc(-c3ccc(C(=O)NCCNC(C)C)cc3)ccc2=O)c1 [A21] | 0.01 to 1
CCOC(=O)Nc1cccc(Cn2nc(-c3ccc(C(=O)NCCCN4CCCC4)cc3)ccc2=O)c1 [A23] | 0.01 to 1
CCOC(=O)Nc1cccc(Cn2nc(-c3ccc(C(=O)NCCCCO)cc3)ccc2=O)c1 [A42] | 0.01 to 1
CCOC(=O)Nc1cccc(Cn2nc(-c3cccc(C(=O)NCCCCNC(=O)OC(C)(C)C)c3)ccc2=O)c1 [A43, ethyl(3-{3-[3-(4-tert-butoxycarbonylaminobutylcarbamoyl)-phenyl]-6-oxo-6H-pyridazin-1-ylmethyl}phenyl)carbamate] | 0.01 to 1
CCOC(=O)Nc1cccc(Cn2nc(-c3cccc(C(=O)NCCCNC(=O)OC(C)(C)C)c3)ccc2=O)c1 [A44] | 0.01 to 1
CCOC(=O)Nc1cccc(Cn2nc(-c3cccc(C(=O)NCCNC(=O)OC(C)(C)C)c3)ccc2=O)c1 [A45] | 0.01 to 1
CCOC(=O)Nc1cccc(Cn2nc(-c3cccc(C(=O)NCCOC)c3)ccc2=O)c1 [A50] | 0.01 to 1
CCOC(=O)Nc1cccc(Cn2nc(-c3cccc(C(=O)NCCCOC)c3)ccc2=O)c1 [A51] | 0.01 to 1
CCOC(=O)Nc1cccc(Cn2nc(-c3cccc(C(=O)NCCCO)c3)ccc2=O)c1 [A52] | 0.01 to 1
CCOC(=O)Nc1cccc(Cn2nc(-c3cccc(C(=O)NCCCCO)c3)ccc2=O)c1 [A53] | 0.01 to 1
CCOC(=O)Nc1cccc(Cn2nc(-c3ccc(CC(=O)NCCCCNC(=O)OC(C)(C)C)cc3)ccc2=O)c1 [A54, ethyl[3-(3-{4-[(4-tert-butoxycarbonylaminobutyl-carbamoyl)methyl]phenyl}-6-oxo-6H-pyridazin-1-ylmethyl)phenyl]-carbamate] | 0.01 to 1
CCOC(=O)Nc1cccc(Cn2nc(-c3ccc(CC(=O)NCCCCN(C)C)cc3)ccc2=O)c1 [A56] | 0.01 to 1
CCOC(=O)Nc1cccc(Cn2nc(-c3cccc(CC(=O)NCCCNC(=O)OC(C)(C)C)c3)ccc2=O)c1 [A61] | 0.01 to 1
CCOC(=O)Nc1cccc(Cn2nc(-c3cccc(CC(=O)NCCCCN(C)C)c3)ccc2=O)c1 [A63] | 0.01 to 1
CCOC(=O)Nc1cccc(Cn2nc(-c3cccc(CC(=O)NCCCN(C)C)c3)ccc2=O)c1 [A64] | 0.01 to 1
CCOC(=O)Nc1cccc(Cn2nc(-c3cccc(CC(=O)NCCCO)c3)ccc2=O)c1 [A66] | 0.01 to 1
CCOC(=O)Nc1cccc(Cn2nc(-c3cccc(CC(=O)NCCOC)c3)ccc2=O)c1 [A68] | 0.01 to 1
CCOC(=O)Nc1cccc(Cn2nc(-c3cccc(CC(N)=O)c3)ccc2=O)c1 [A69] | 0.01 to 1
CCOC(=O)Nc1cccc(Cn2nc(-c3cccc(CC(=O)NCCCCO)c3)ccc2=O)c1 [A71] | 0.01 to 1
CCOC(=O)Nc1cccc(Cn2nc(-c3ccc(CNC(=O)Cn4ccccc4=O)cc3)ccc2=O)c1 [A76] | 0.01 to 1
CCOC(=O)Nc1cccc(Cn2nc(-c3ccc(CNC(=O)CN4CCOCC4)cc3)ccc2=O)c1 [A82] | 0.01 to 1

Results, then the molecule that gave them:

IC50 [µM] | SMILES
0.01 to 1 | CCOC(=O)Nc1cccc(Cn2nc(-c3ccc(C(=O)NCCCO)cc3)ccc2=O)c1 [A5]
0.01 to 1 | CCOC(=O)Nc1cccc(Cn2nc(-c3ccc(C(=O)NCCS(C)(=O)=O)cc3)ccc2=O)c1 [A7]
0.01 to 1 | CCOC(=O)CNC(=O)c1ccc(-c2ccc(=O)n(Cc3cccc(NC(=O)OCC)c3)n2)cc1 [A8]
0.01 to 1 | CCOC(=O)CN(C)C(=O)c1ccc(-c2ccc(=O)n(Cc3cccc(NC(=O)OCC)c3)n2)cc1 [A9]
0.01 to 1 | CCOC(=O)Nc1cccc(Cn2nc(-c3ccc(C(=O)NCCCn4ccnc4)cc3)ccc2=O)c1 [A10]
0.01 to 1 | CCOC(=O)Nc1cccc(Cn2nc(-c3ccc(C(=O)NCCCCN(C)C)cc3)ccc2=O)c1 [A11]
0.01 to 1 | CCOC(=O)Nc1cccc(Cn2nc(-c3ccc(C(=O)NCCCN(C)C)cc3)ccc2=O)c1 [A14]
0.01 to 1 | CCOC(=O)Nc1cccc(Cn2nc(-c3ccc(C(=O)NCCN(C)C)cc3)ccc2=O)c1 [A15]
0.01 to 1 | CCOC(=O)Nc1cccc(Cn2nc(-c3ccc(C(=O)NCCN4CCOCC4)cc3)ccc2=O)c1 [A17]
0.01 to 1 | CCOC(=O)Nc1cccc(Cn2nc(-c3ccc(C(=O)NCCN4CCCCC4)cc3)ccc2=O)c1 [A18]
0.01 to 1 | CCOC(=O)Nc1cccc(Cn2nc(-c3ccc(C(=O)N(C)CCN(CC)CC)cc3)ccc2=O)c1 [A19]
0.01 to 1 | CCOC(=O)Nc1cccc(Cn2nc(-c3ccc(C(=O)NCCN(CC)CC)cc3)ccc2=O)c1 [A20]
0.01 to 1 | CCOC(=O)Nc1cccc(Cn2nc(-c3ccc(C(=O)NCCCN4CCN(C)CC4)cc3)ccc2=O)c1 [A22]
0.01 to 1 | CCOC(=O)Nc1cccc(Cn2nc(-c3ccc(C(=O)NCCCN4CCCC4=O)cc3)ccc2=O)c1 [A24]
0.01 to 1 | CCOC(=O)Nc1cccc(Cn2nc(-c3ccc(C(=O)NCCCN(CC)CC)cc3)ccc2=O)c1 [A25]
0.01 to 1 | CCOC(=O)Nc1cccc(Cn2nc(-c3ccc(C(=O)NCCCN4CCCCC4)cc3)ccc2=O)c1 [A26]
0.01 to 1 | CCOC(=O)Nc1cccc(Cn2nc(-c3ccc(C(=O)NCCCN4CCOCC4)cc3)ccc2=O)c1 [A27]
0.01 to 1 | CCOC(=O)Nc1cccc(Cn2nc(-c3ccc(C(=O)NCCCCN4CCCC4)cc3)ccc2=O)c1 [A28]

IC50 [µM] | SMILES
0.01 to 1 | CCOC(=O)Nc1cccc(Cn2nc(-c3cccc(C(=O)NCCCCN(C)C)c3)ccc2=O)c1 [A46]
0.01 to 1 | CCOC(=O)Nc1cccc(Cn2nc(-c3cccc(C(=O)NCCCN(C)C)c3)ccc2=O)c1 [A47]
0.01 to 1 | CCOC(=O)Nc1cccc(Cn2nc(-c3cccc(C(=O)NCCN(C)C)c3)ccc2=O)c1 [A48]
0.01 to 1 | CCOC(=O)Nc1cccc(Cn2nc(-c3cccc(C(=O)NCCO)c3)ccc2=O)c1 [A49]
0.01 to 1 | CCOC(=O)Nc1cccc(Cn2nc(-c3ccc(CC(=O)NCCNC(=O)OC(C)(C)C)cc3)ccc2=O)c1 [A55]
0.01 to 1 | CCOC(=O)Nc1cccc(Cn2nc(-c3ccc(CC(N)=O)cc3)ccc2=O)c1 [A57]
0.01 to 1 | CCOC(=O)Nc1cccc(Cn2nc(-c3cccc(CC(=O)NCCNC(=O)OC(C)(C)C)c3)ccc2=O)c1 [A62]
0.01 to 1 | CCOC(=O)Nc1cccc(Cn2nc(-c3cccc(CC(=O)NCCN(C)C)c3)ccc2=O)c1 [A65]
0.01 to 1 | CCOC(=O)Nc1cccc(Cn2nc(-c3cccc(CC(=O)N(C)CCO)c3)ccc2=O)c1 [A67]
0.01 to 1 | CCOC(=O)Nc1cccc(Cn2nc(-c3cccc(CC(=O)NCCCOC)c3)ccc2=O)c1 [A70]
0.01 to 1 | CCOC(=O)Nc1cccc(Cn2nc(-c3cccc(CC(=O)NCCO)c3)ccc2=O)c1 [A72]
0.01 to 1 | CCOC(=O)Nc1cccc(Cn2nc(-c3ccc(CNC(=O)CNC(C)=O)cc3)ccc2=O)c1 [A75, ethyl[3-(3-{4-[(2-acetylaminoacetylamino)methyl]phenyl}-6-oxo-6H-pyridazin-1-ylmethyl)phenyl]carbamate]
0.01 to 1 | CCOC(=O)Nc1cccc(Cn2nc(-c3ccc(CNC(=O)Cc4nnn[nH]4)cc3)ccc2=O)c1 [A77]
0.01 to 1 | CCOC(=O)Nc1cccc(Cn2nc(-c3ccc(CNC(=O)CCNC=O)cc3)ccc2=O)c1 [A78]
0.01 to 1 | CCOC(=O)Nc1cccc(Cn2nc(-c3ccc(CNC(=O)Cn4cnnn4)cc3)ccc2=O)c1 [A79]
0.01 to 1 | CCOC(=O)Nc1cccc(Cn2nc(-c3ccc(CNC(=O)CN(C)C)cc3)ccc2=O)c1 [A80]
0.01 to 1 | CCOC(=O)Nc1cccc(Cn2nc(-c3ccc(CNC(=O)COC)cc3)ccc2=O)c1 [A81]
